Among the data in US9238026B2, “Inhibitors of viral replication, their process of preparation and their therapeutical uses” (priority 2011, dated 2016) are EC50 values, retold here.

In general, EC50 refers to the concentration giving half of the maximal effect.

The assay relates to NL4-3 strain of HIV-1. The experiment in a line: microbe, parasite or virus in culture. Format: cell-based. The procedure: The antiviral activity, particularly against HIV, of compounds according to the invention is evaluated by the protocol described below.
Preparation of Virus stock of the NL4-3 strain of HIV-1
The virus was prepared as described in Lopez et al (Lopez et al, Proc Natl Acad Sci USA., 2006, 103(40):14947-52, by transfecting 2×10^6 293T cells (CRL-1573, ATCC) with following modifications: 6 μg of NL4-3 proviral DNA molecular clone were mixed with Fugene 6 transfection reagent from Roche, and used according to manufacturer's instructions. Forty eight hours later, transfected cell supernatants were harvested, filtered through 0.45-μm-pore-size filters, quantified for HIV-1 p24 antigen by using a Innotest HIV antigen mAb assay (Ingen) according to manufacturer's instructions, and used in infection experiments.
Serial dilutions of compounds to be tested were prepared in complete RPMI medium from 10 mM DMSO stock solutions, and distributed in a volume of 20 μl in 96 well Falcon 353072 Microtest™ tissue culture plate, in order to get 0.5% DMSO final concentration in each well, after the addition of infected cells. Control wells contained also 0.5% DMSO final concentration but no compound.
MT4 cells (from the NIH AIDS Research and Reference Reagent Program) in RPMI complete medium were counted (10×10^6 cells per well in Falcon 353047 Multiwell™ 24 well) and infected for 2 hours at 37°, at a multiplicity of infection (moi) of 0.0001-0.00001. Cells were then centrifuged 3 min at 3000 rpm, and washed two times in 1 ml PBS to remove viruses that have not entered in cells. Infected cells were resuspended in complete RPMI at 1.25×10^6 cells/ml, and […] of infected cells were distributed in each well containing compounds to be tested or control wells. The plates were then incubated at 37° for 5 days.
Assay used to measure the inhibition of HIV replication by the compounds
(according to Gregg S. Jones et al., Antimicrobial Agents and Chemotherapy, 2009, 53 (3): 1194-1203).
After 5 days of incubation, 50 μl of CellTiter-Glo reagent (Promega Biosciences, Inc., Madison Wis., USA) were added to each well. Cell lysis was carried out at room temperature during 10 min, 150 μl of lysates were transferred in Packard Optiplate 96 well, and luminescence was read on a Fluoroskan (Thermo Scientific).
The EC50, or effective concentration 50, is the concentration of compound leading to 50% of cyto-protection in a Cell-Titer-Glo® viability assay based on MT4 cells infected with NL4.3 virus.

Setting [1] is: Human immunodeficiency virus 1, NL43, 120 h, concentration leading to 50% of cyto-protection, MT4 cells infected with NL4.3 virus, 5 days incubation, CellTiter-Glo, read-out: EC50.

Molecules are shown by their SMILES. Like-named read-outs stand apart in the source and are kept apart here.

In the case of `Cc1sc(C)c(C(OC(C)(C)C)C(=O)O)c1-c1ccc(Cl)cc1` (stereo not shown) [Example 50, tert-butoxy-[4-(4-chloro-phenyl)-2,5-dimethyl-thiophen-3-yl]-acetic acid], the half-maximal effective concentration (EC50) under setting [1] worked out at 44 µM.

For `Cc1cccc2c1C(c1ccc3c(c1)CCCO3)=C(C(OC(C)(C)C)C(=O)O)S2(=O)=O` (stereo not shown) [Example 24, 2-(tert-butoxy)-2-[3-(3,4-dihydro-2H-1-benzopyran-6-yl)-4-methyl-1,1-dioxo-1λ^6-benzothiophen-2-yl]acetic acid], the EC50 under setting [1] was determined as 11 µM.

`Cc1sc(C)c(C(OC(C)(C)C)C(=O)O)c1-c1ccc2c(c1)CCCO2` (stereo not shown) [Example 17, 2-(tert-butoxy)-2-[4-(3,4-dihydro-2H-1-benzopyran-6-yl)-2,5-dimethylthiophen-3-yl]acetic acid]: the half-maximal effective concentration (EC50) under setting [1] came out at 26 µM.

Take `Cc1cccc2sc(C(OC(C)(C)C)C(=O)O)c(-c3ccc4c(c3)CCCO4)c12` (stereo not shown) [Example 23, 2-(tert-butoxy)-2-[3-(3,4-dihydro-2H-1-benzopyran-6-yl)-4-methyl-1-benzothiophen-2-yl]acetic acid]: the concentration giving a half-maximal response (EC50) under setting [1] worked out at 23 µM.

In the case of `Cc1sc(Cl)c(-c2ccc3c(c2)CCCO3)c1C(OC(C)(C)C)C(=O)O` (stereo not shown) [Example 44, 2-(tert-butoxy)-2-[5-chloro-4-(3,4-dihydro-2H-1-benzopyran-6-yl)-2-methylthiophen-3-yl]acetic acid], the EC50 under setting [1] amounted to 16 µM.

As for `Cc1sc(C)c(C(OC(C)(C)C)C(=O)O)c1-c1ccc2c(c1)CCCC2` (stereo not shown) [Example 39, 2-(tert-butoxy)-2-[2,5-dimethyl-4-(5,6,7,8-tetrahydronaphthalen-2-yl)thiophen-3-yl]acetic acid], the EC50 under setting [1] turned out to be 41 µM.

With `Cc1sc(C)c(C(OC(C)(C)C)C(=O)O)c1C1=CCCCC1` (stereo not shown) [Example 29, 2-(tert-butoxy)-2-[4-(cyclohex-1-en-1-yl)-2,5-dimethylthiophen-3-yl]acetic acid], the EC50 under setting [1] was 33 µM.

As for `Cc1sc(C)c(C(SC(C)(C)C)C(=O)O)c1-c1ccc2c(c1)CCCO2` (stereo not shown) [Example 32, 2-(tert-butylsulfanyl)-2-[4-(3,4-dihydro-2H-1-benzopyran-6-yl)-2,5-dimethylthiophen-3-yl]acetic acid], the EC50 under setting [1] stood at 26 µM.

For the molecule `Cc1sc(C)c(C(OC(C)(C)C)C(=O)O)c1C1=CCC(C)(C)CC1` (stereo not shown) [Example 52, tert-butoxy-[4-(4,4-dimethyl-cyclohex-1-enyl)-2,5-dimethyl-thiophen-3-yl]-acetic acid], a half-maximal effect (Human immunodeficiency virus 1, NL43, MT4, 120 h) (EC50) was put at 33 µM.

`CC(C)(C)OC(C(=O)O)c1c(C(F)(F)F)nn(C2CCCCC2)c1-c1ccc2c(c1)CCCO2` (stereo not shown) [Example 54, 2-(tert-butoxy)-2-[1-cyclohexyl-5-(3,4-dihydro-2H-1-benzopyran-6-yl)-3-(trifluoromethyl)-1H-pyrazol-4-yl]acetic acid]: under setting [1], the 50% effective concentration (EC50) was found to be 2.2 µM.

`Cc1sc(C)c(C(OC(C)(C)C)C(=O)O)c1C1=CCCCCC1` (stereo not shown) [Example 31, 2-(tert-butoxy)-2-[4-(cyclohept-1-en-1-yl)-2,5-dimethylthiophen-3-yl]acetic acid]: the EC50 under setting [1] was found to be 29 µM.

As to `CC1=C(c2ccc3c(c2)CCCO3)C(C(OC(C)(C)C)C(=O)O)=C(C)S1(=O)=O` (stereo not shown) [Example 18, (tert-butoxy)[4-(3,4-dihydro-2H-1-benzopyran-6-yl)-2,5-dimethyl-1,1-dioxo-1λ^6-thiophen-3-yl]acetic acid], the EC50 under setting [1] amounted to 34 µM.

Turning to `Cc1sc(C)c(C(OC(C)(C)C)C(=O)O)c1-c1ccccc1Cl` (stereo not shown) [Example 51, tert-butoxy-[4-(2-chloro-phenyl)-2,5-dimethyl-thiophen-3-yl]-acetic acid], the EC50 under setting [1] was 41 µM.
